Measurements: US20220323599A1, “ANTI-BCMA ANTIBODY CONJUGATE, COMPOSITIONS COMPRISING THE SAME, AND METHODS OF MAKING AND USING THE SAME” (CELGENE CORPORATION, priority 2019, published 2022)

Tested on: MM.1S multiple myeloma cells
Assay: Disseminated MM.1S multiple myeloma model in NSG mice
Type: in vivo
From the text: Female NOD severe combined immune deficient (SCID) gamma (NSG) mice 8-9 weeks of age were inoculated with 5×10^6 multiple myeloma MM.1S cells into the tail vein. Randomization by body weight and start of treatment was initiated 7 days post tumor inoculation. The treatment groups are outlined in Table 10. […] Groups 1-10 (n=6/group) were monitored for survival endpoint characterized by >20% body weight loss and clinical signs including lethargy, hind limb paralysis or moribundity. Groups 11-20 (n=3/group) were used for bone marrow harvest and analysis of tumor burden on day 28 post tumor cell inoculation. For all groups, body weights were monitored 1-2×/week.
Tumor burden was assessed and quantified by detection of hCD138 positive (hCD138+) cells in the bone marrow. Bone marrow cells from mouse femur and tibia were pooled and assessed for human CD138+ expression using the Alexa Fluor 647 mouse anti-human CD138 clone MI15 (BD Biosciences #562097) according to the manufacturer's protocol. […] Data was analyzed using Flowjo (Tree Star, Inc., Ashland, Oreg.).
Female NOD severe combined immune deficient (SCID) gamma (NSG) mice 9-12 weeks of age were inoculated with 5×10^6 multiple myeloma MM.1S cells into the tail vein. […] Body weights were monitored 1-2×/week. […]

Row | Molecule | mean survival (Example 9, 0.8 mg/kg Velcade q7dx2 IP, vehicle 30.6 days) | effect on survival compared to vehicle control (Example 9, single agent at 3 or 10 mg/kg, single IP)
1 | CC(C)C[C@H](NC(=O)[C@H](Cc1ccccc1)NC(=O)c1cnccn1)B(O)O [Velcade, bortezomib] | 40.6 days | –
2 | Daratumumab: MM standard of care agent, clinical grade Daratumumab | – | no significant effect on survival compared to vehicle control
